Assay results published in PMC8010149, “A Therapeutic Strategy to Combat HIV-1 Latently Infected Cells With a Combination of Latency-Reversing Agents Containing DAG-Lactone PKC Activators” (Frontiers in Microbiology, 2021).

What was measured:
[1] = test system: HIV-1 latently infected ACH-2 cells; experiment: Intracellular HIV-1 p24 by flow cytometry in ACH-2 cells; assay type: cell-based
Method: (§1) The reactivation of HIV-1 from latently infected cells was determined by intracellular p24 protein expression and quantification of p24 antigen in the supernatant (ACH-2 and U1 cells), or by changes in intracellular green fluorescent protein (GFP) expression (J-Lat 10.6 cells). J-Lat ([Jordan et al., 2003]), ACH-2, or U1 cells (5 × 10^5 cells/ml) were seeded in 96-well plates and incubated with different drug concentrations for 24 h to collect the cells. The supernatant was collected after 48 h. The increase in supernatant p24 antigen levels was measured using a Lumipulse G1200 (FUJIREBIO, Tokyo, Japan). J-Lat cells (5 × 10^5 cells/ml) were placed in 48-well plates and incubated with different drug concentrations for 24 h. Intracellular p24 protein expression and GFP-positive cells were analyzed by flow cytometry.
(§2) The amount of intracellular HIV-1 p24 and the active form of caspase-3 were determined by flow cytometry, as previously described ([Matsuda et al., 2015], [2019]). In brief, ACH-2 and U1 cells (2.5 × 10^5 cells/ml) were fixed with 1% paraformaldehyde/PBS for 20 min and permeabilized with Flow Cytometry Perm Buffer (TONBO Biosciences, San Diego, CA, United States). After 5 min of incubation at room temperature, the cells were stained with FITC anti-HIV-1 p24 (24-4) monoclonal antibody (mAb; Santa Cruz Biotechnology, Dallas, TX, United States) or Alexa Fluor 647-conjugated anti-active caspase-3 (C92-605) mAb (BD Pharmingen, San Diego, CA, United States) for 30 min on ice. For T cell activation and exhaustion marker staining, PBMCs from healthy donors separated by the above density gradient centrifugation method were incubated with fixable viability stain Ghost Dye 780 (TONBO Biosciences) for 30 min on ice. The cells were then stained with Brilliant Violet 510 anti-human CD3 (UCHT1) mAb (BioLegend), FITC anti-human CD4 (RPA-T4) mAb (TONBO Biosciences), PE-Cy7 anti-human CD8a (RPA-T8) mAb (TONBO Biosciences), PerCP-Cy5.5 anti-human CD38 (HB-7) mAb (BioLegend), PE anti-human CD69 (FN50) mAb (BioLegend), or Alexa Fluor 647 anti-human CD279/PD-1 (EH12.1) mAb (BD Biosciences, San Jose, CA, United States) for 30 min on ice. Next, the cells were analyzed using BD FACSVerse (BD Biosciences). In the analysis, unstained cells were used as a negative control to set the gating for each experiment. The collected data were analyzed using FlowJo software (Tree Star, San Carlos, CA, United States).

[2] = test system: HIV-1 latently infected U1 cells; experiment: HIV-1 latency reversal, p24 antigen in supernatant, U1 cells; assay type: cell-based; settings: Human immunodeficiency virus 1, 48 h
Method: as §1

[3] = Cytotoxicity of LRAs in A3.01 cells; assay type: cell-based; settings: human, day 7
Method: (§3) To determine the cytotoxicity of LRAs, A3.01, and U937 cells (5 × 10^5 cells/ml), which are the parental cells for ACH-2 and U1 cells, respectively, were cultured in the presence or absence of LRAs. After 7 days, cell viability was examined using the Cell Counting Kit-8 assay (Dojindo, Kumamoto, Japan) according to the manufacturer’s instructions. The numbers of living cells after drug treatment were measured and compared to those in untreated cells and are presented as a percentage relative to the control.

[4] = Cytotoxicity of LRAs in U937 cells; assay type: cell-based; settings: human, day 7
Method: as §3

[5] = test system: HIV-1 latently infected ACH-2 cells; experiment: HIV-1 latency reversal, p24 antigen in supernatant, ACH-2 cells; assay type: cell-based; settings: Human immunodeficiency virus 1, ACH-2, 48 h
Method: as §1

[6] = test system: HIV-1 latently infected U1 cells; experiment: Intracellular HIV-1 p24 by flow cytometry in U1 cells; assay type: cell-based
Method: as §1, §2

[7] = test system: J-Lat 10.6 cells; assay type: cell-based, HIV-1; settings: J-Lat 10.6 cells, 24 h
Method: The reactivation of HIV-1 from latently infected cells was determined by intracellular p24 protein expression and quantification of p24 antigen in the supernatant (ACH-2 and U1 cells), or by changes in intracellular green fluorescent protein (GFP) expression (J-Lat 10.6 cells). […] The supernatant was collected after 48 h. The increase in supernatant p24 antigen levels was measured using a Lumipulse G1200 (FUJIREBIO, Tokyo, Japan). […] Intracellular p24 protein expression and GFP-positive cells were analyzed by flow cytometry.
Differences between groups were analyzed for statistical significance using unpaired t-tests. Statistical significance was set at p < 0.05. Statistical analyses were performed using GraphPad Prism version 8 (GraphPad Software, La Jolla, CA, United States). CompuSyn software, based on the quantitative analysis of dose-effect relationships between multiple drugs by Chou and Talalay, was utilized to determine the synergism or antagonism of drug combinations ([Chou and Talalay, 1984]). To confirm synergy, this software calculates combination index (CI) values, which further assist in determining the nature of the combination compared to single drug effects. A CI value <1 indicates synergistic effects.

[8] = test system: HIV-1 in CD4+ T cells from HIV-1-infected individuals; experiment: Ex vivo reactivation, intracellular HIV-1 mRNA in primary CD4+ T cells from HIV-1-infected individuals; assay type: cell-based; settings: 1 μM JQ1, 24 h, seven individuals
Method: Primary cells were isolated from seven HIV-1^+ individuals, and ex vivo reactivation experiments were conducted as previously described ([Matsuda et al., 2019]). In brief, peripheral blood samples were collected from HIV-1-infected participants receiving cART for at least 5 years (Table 1). All subjects maintained a low viral load (<20 copies/ml, except for occasional “blips”) during therapy. CD4^+ T cell counts in peripheral blood samples ranged from 477 to 992 cells/mm^3 (average: 631 cells/mm^3), and plasma viral loads were <20 copies/ml (except for one participant whose viral load was 22 copies/ml) as measured by quantitative PCR (qPCR; COBAS AmpliPrep/COBAS TaqMan HIV-1 Test version 2.0; Roche Diagnostics, Basel, Switzerland) at the time of study enrollment. The Ethics Committee at the National Center for Global Health and Medicine approved this study (NCGM-G-002259-00), and each patient provided written informed consent. […] The number of HIV-1 RNA copies was calculated using a standard curve obtained from serially diluted HIV-1pNL4-3 plasmid, and normalized values [HIV-1 RNA copies/input RNA (ng)] for each drug were compared to those without drug treatment. The relative increase in HIV-1 RNA levels in the presence of each drug or combination was then determined.

[9] = test system: BALB/c mice; experiment: In vivo acute toxicity (24 h) in BALB/c mice
Description: BALB/c mice were purchased from Charles River Laboratories Japan, Inc. (Yokohama, Japan). Female mice at 5 weeks of age were used for the experiments. The mice were housed and monitored in our animal research facility according to the institutional guidelines. All experimental procedures and protocols were approved by the Institutional Animal Care and Use Committee of Kumamoto University.

[10] = test system: CD8+PD1+CD38+ primary T cells; experiment: Immune exhaustion markers, CD8+PD1+CD38+ primary T cells; assay type: cell-based, human; settings: PBMCs from healthy donors, 24 h
Method: as §2

[11] = test system: U937 cells; experiment: Active caspase-3 by flow cytometry in U937 cells; assay type: cell-based; settings: 10 μM, 24 h
[12] = test system: U1 cells; experiment: Active caspase-3 by flow cytometry in U1 cells; assay type: cell-based; settings: 10 µM, 24 h
Method: as §2, with “The cells were then stained with Brilliant Violet 510 anti-human CD3 (UCHT1) mAb (BioLegend), FITC anti-human CD4 (RPA-T4) mAb (TONBO Biosciences), PE-Cy7 anti-human CD8a (RPA-T8) mAb (TONBO Biosciences), PerCP-Cy5.5 anti-human CD38 (HB-7) mAb (BioLegend), PE anti-human CD69 (FN50) mAb (BioLegend), or Alexa Fluor 647 anti-human CD279/PD-1 (EH12.1) mAb (BD Biosciences, San Jose, CA, United States) for 30 min on ice.” left out, “In the analysis, unstained cells were used as a negative control to set the gating for each experiment.” left out

[13] = PMA control, concentration not given

## CCCCCCCCCC(=O)OCC1(CO)CC(=C(C)C)C(=O)O1 (centres unmarked) [HTA14-472]
[1]; 0.1 µM, 24 h
  intracellular p24-positive live cells (flow cytometry quadrant): 0.714
[1]; 1 µM, 24 h
  intracellular p24-positive live cells (flow cytometry quadrant): 0.526
[1]; 10 µM, 24 h
  intracellular p24-positive live cells (flow cytometry quadrant): 17.4
[2]
  EC50: > 10 µM
[3]
  CC50 at 7 days: > 100 µM
[4]
  CC50 at 7 days: > 100 µM
[5]
  EC50: > 10 µM
[6]; 0.1 µM, 24 h
  intracellular p24-positive live cells (flow cytometry quadrant): 0.28
[6]; 1 µM, 24 h
  intracellular p24-positive live cells (flow cytometry quadrant): 0.262
[6]; 10 µM, 24 h
  intracellular p24-positive live cells (flow cytometry quadrant): 2.98

## Cc1sc2c(c1C)C(c1ccc(Cl)cc1)=N[C@@H](CC(=O)OC(C)(C)C)c1nnc(C)n1-2 [JQ1, reference compound]
[7]; 100–400 nM
  number of GFP+ cells: 12.6%
[8]
  HIV-1 mRNA compared to no drug control: 2.25 fold

## C/C=C(/C)C(=O)O[C@H]1C(C)=C[C@]23C(=O)[C@@H](C=C(CO)[C@@H](O)[C@]12O)[C@H]1[C@@H](C[C@H]3C)C1(C)C [PEP005]
[9]; intraperitoneal
  concentration at which acute toxicity started: 300 µg/kg
[9]; intraperitoneal, 1,000 μg/kg
  survival: all tested mice died
[10]
  increase in CD8+ PD1+ CD38+ T cells: significant increase

## CCCCCCCCCCCCCC(=O)O[C@@H]1[C@@H](C)[C@@]2(O)[C@@H](C=C(CO)C[C@]3(O)C(=O)C(C)=C[C@@H]23)[C@@H]2C(C)(C)[C@]12OC(C)=O [PMA, Phorbol 12-myristate 13-acetate, reference compound]
[1]; [13]
  intracellular p24-positive live cells (flow cytometry quadrant): 77.8
[6]; [13]
  intracellular p24-positive live cells (flow cytometry quadrant): 42.2

## CC(=O)O[C@@]12C[C@@H](C)[C@@]3(O)[C@@H](C=C(CO)C[C@]4(O)C(=O)C(C)=C[C@@H]34)[C@@H]1C2(C)C [Prostratin, reference compound]
[11]
  caspase-3 activation: 18.8%
[7]; GFP-positive cells
  LRA activity in the presence of 10% mouse serum versus 10% FBS: did not change
[1]; 0.1 µM, 24 h
  intracellular p24-positive live cells (flow cytometry quadrant): 4.99
[1]; 1 µM, 24 h
  intracellular p24-positive live cells (flow cytometry quadrant): 68.7
[1]; 10 µM, 24 h
  intracellular p24-positive live cells (flow cytometry quadrant): 76.7
[2]
  EC50: 0.32 µM
[3]
  CC50 at 7 days: > 100 µM
[12]
  caspase-3 activation: 19.1%
[4]
  CC50 at 7 days: > 100 µM
[5]
  EC50: 0.33 µM
[6]; 0.1 µM, 24 h
  intracellular p24-positive live cells (flow cytometry quadrant): 0.333
[6]; 1 µM, 24 h
  intracellular p24-positive live cells (flow cytometry quadrant): 33.5
[6]; 10 µM, 24 h
  intracellular p24-positive live cells (flow cytometry quadrant): 40.7
[10]
  increase in CD8+ PD1+ CD38+ T cells: significant increase

## CCCCCCCCCC(=O)OCC1(CO)C/C(=C\CC(C(C)C)C(C)C)C(=O)O1 (centres unmarked) [YOK058E]
[1]; 0.1 µM, 24 h
  intracellular p24-positive live cells (flow cytometry quadrant): 0.629
[1]; 1 µM, 24 h
  intracellular p24-positive live cells (flow cytometry quadrant): 3.24
[1]; 10 µM, 24 h
  intracellular p24-positive live cells (flow cytometry quadrant): 67.2
[2]
  EC50: 8.24 µM
[3]
  CC50 at 7 days: > 100 µM
[4]
  CC50 at 7 days: > 100 µM
[5]
  EC50: > 10 µM
[6]; 0.1 µM, 24 h
  intracellular p24-positive live cells (flow cytometry quadrant): 0.208
[6]; 1 µM, 24 h
  intracellular p24-positive live cells (flow cytometry quadrant): 0.197
[6]; 10 µM, 24 h
  intracellular p24-positive live cells (flow cytometry quadrant): 13.3
